Test results reported in US5055613A, “Metabolites of pentanedioic acid derivatives” (G. D. Searle & Co., priority 1988, dated 1991).

Experiments:
fed hepatocytes [1] = experiment: Fatty acid and cholesterol synthesis in isolated fed hepatocytes; assay type: cell-based, rat; conditions: 0.5 mM; for Cholesterol Synthesis: No Addition 0.013 ± 0.002; for Fatty Acid Synthesis: No Addition 0.024 ± 0.004
Description: (§1) Hepatocytes are prepared from ad lib fed rats or 8-hour fasted rats by the method of Berry and Friend (1969) with minor modifications (McCune and Harris, 1979 J. Biol. Chem. 254,10095-10101.) Lean female rats (200-300 g) are ad lib fed and on a 8:00 a.m.-8:00 p.m. light cycle. The cells are isolated between 9:00-10:00 a.m., to compensate for any diurnal rhythms such as glycogen depletion.
(§2) The cells are suspended in 2 mls of Krebs-Henseleit buffer supplemented with 2% BSA (essentially fatty acid free and dialyzed) under an atmosphere of 95% O2, 5% CO2 in stoppered 25 ml Erlenmeyer flasks. Incubations were conducted in a shaking water bath at 37° C. for appropriate times. Cells for fatty acid and cholesterol synthesis were treated with […] of H2 O(10mCi/ml) after 30 minutes of pre-incubation and stopped at 60 minutes.
Determination of cholesterol and fatty acid synthesis: The rate of fatty acid synthesis and cholesterol synthesis, expressed as moles of acetate equivalents/g wet weight of hepatocytes are determined by the incorporation of H2 O into total lipid, and extracted by the methods of Kates (1972 Tech. of Lipidology, 349, 363) and Harris (1975 Arch. Biochem. Biophys. 169, 168-180). Calculations are done according to Jungas (1968 Biochemistry 7, 3708-3717).
(§3) Various compounds of the present invention were added to various concentrations to the hepatocytes and incubated for a short period of time. The effect of the compound was evaluated on cholesterol, fatty acid and glucose synthesis as well on other metabolites in the cell.

fed hepatocytes [2] = experiment: Glucose release, lactate and pyruvate (metabolites) in isolated fed hepatocytes; assay type: cell-based, rat; conditions: 0.5 mM; for Pyruvate: No Addition 0.186 ± 0.040; for Lactate: No Addition 0.317 ± 0.095
Description: as §1, §2
Assay of metabolites: Cells are terminated with HClO4 (0.1 ml of 60%) and treated as described previously; McCune et al., 1981 Methods of Enzymology 72, 557-559). The metabolites in the extracts are measured spectrophotometrically by enzymatic methods, according to the methods of Hohorst et al. (1959 Biochem. Z., 332,18-46) for pyruvate and lactate, Williamson et al. (1962) for acetoacetate and beta-hydroxybutyrate, Slein (1965) for glucose, Michal and Bergmeyer (1974) for acetyl-CoA, McCune, et al. (ibid) for glycogen, Mollering and Gruber (1966 Anal. Biochem. 17, 369-379) for citrate, and Lambrecht and Trautschold (1974 Methods of Enzymatic Analysis, 2101 2109) for ATP.
as §3

| Structure (SMILES) | Cholesterol Synthesis (fed hepatocytes [1]) | Fatty Acid Synthesis (fed hepatocytes [1]) | Pyruvate (fed hepatocytes [2]) | Lactate (fed hepatocytes [2]) |
| --- | --- | --- | --- | --- |
| COC(=O)C(C)(C)CCCCCCCCCCCC(O)(CC(=O)O)CC(=O)O [Example 10, 3-(12-Carbomethoxy-12-methyl-tridecyl)-3-hydroxy glutaric acid] | 0.003 ± 0.001 mmoles/min/gm wet weight | 0.003 ± 0.001 mmoles/min/gm wet weight | 0.220 ± 0.031 mmoles/ml incubation medium | 0.477 ± 0.084 mmoles/ml incubation medium |
| CC(C)(CCCCCCCCCCCC(O)(CC(=O)O)CC(=O)O)C(=O)O [Example 11, 3-(12-Carboxy-12-methyl-tridecyl)-3-hydroxy glutaric acid] | 0.002 ± 0.001 mmoles/min/gm wet weight | 0.003 ± 0.001 mmoles/min/gm wet weight | 0.202 ± 0.028 mmoles/ml incubation medium | 0.437 ± 0.104 mmoles/ml incubation medium |
| CC(C)(CO)CCCCCCCCCCCC(O)(CC(=O)O)CC(=O)O [Example 14, 3-(13-Hydroxy-12,12-dimethyl-tridecyl)-3-hydroxy glutaric acid] | 0.004 ± 0.001 mmoles/min/gm wet weight | 0.003 ± 0.001 mmoles/min/gm wet weight | 0.185 ± 0.042 mmoles/ml incubation medium | 0.400 ± 0.091 mmoles/ml incubation medium |
| CC(C)(C)CCCCCCCCCCCC(O)(CC(=O)O)CC(=O)O [Prior Art Compound, 3hydroxy-3-[12,12dimethyltridecyl]glutaric acid, reference compound] | 0.010 ± 0.002 mmoles/min/gm wet weight | 0.010 ± 0.002 mmoles/min/gm wet weight | 0.110 ± 0.013 mmoles/ml incubation medium | 0.383 ± 0.085 mmoles/ml incubation medium |
